Reference: ChEMBL document CHEMBL1201862, “PubChem BioAssay data set” (2004)
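Values below derive from 48-hour exposures of cells grown in 96-well plates, with endpoints linearly interpolated between the two concentrations bracketing the appropriate inhibition level. At the GI50, growth is halved.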 Active and inactive are the calls of the source. No stated cut-off is given here; in the data, active = GI50 up to about 1.1 µM and inactive = higher.

Legend:
Assay in all cases: growth of human tumour cells (NCI), 48 h
CCRF-CEM = system: CCRF-CEM
LOX IMVI = system: LOX IMVI
A549 = system: A549
OVCAR-4 = system: OVCAR-4
OVCAR-8 = system: OVCAR-8
EKVX = system: EKVX
COLO 205 = system: COLO 205
LXFL 529 = system: LXFL 529
SW-620 = system: SW-620
786-0 = system: 786-0
NCI/ADR-RES = system: NCI/ADR-RES
K562 = system: K562
SNB-75 = system: SNB-75
SK-MEL-5 = system: SK-MEL-5
KM12 = system: KM12
RPMI-8226 = system: RPMI-8226
BT-549 = system: BT-549
SF-539 = system: SF-539
OVCAR-3 = system: OVCAR-3

Measured: GI50

CCOC1c2cc(OC)c(OC)cc2-c2ccc3ccccc3c2N1C (centres undefined)
inactive: CCRF-CEM 18 µM | LOX IMVI 14.9 µM | A549 5.62 µM | OVCAR-4 19 µM | OVCAR-8 12.2 µM | EKVX 6.27 µM | COLO 205 6.05 µM | LXFL 529 5.96 µM | SW-620 8.65 µM | 786-0 16.8 µM | NCI/ADR-RES 29.7 µM | K562 7.16 µM | SNB-75 11.8 µM | SK-MEL-5 16.4 µM | KM12 2.66 µM | RPMI-8226 10.7 µM | BT-549 12.6 µM | SF-539 18.2 µM | OVCAR-3 11.5 µM
